Patent US12528741B2, “Compositions for controlling microbially induced concrete corrosion” (The Regents of the University of Colorado, priority 2020, dated 2026)

What was measured:
[1] = system: Acidithiobacillus spp. enrichments from sewer crown biofilm extract; assay: metal inhibition in liquid media (pH monitoring and cell counts of sewer enrichments); type: cell-based; details: for cell density where pH dropped: average, aliquots when pH reached 2
Description: FIGS. 4A-4E are graphs showing pH of enrichments including different levels of copper, cobalt, and silver, alone and in combinations. FIG. 4A: Cu^2+, FIG. 4B: Ag+, FIG. 4C: Cu/Ag in combination at a ratio 2:1, FIG. 4D: Co^2+, and FIG. 4E: Cu/Co in combination at a ratio 1:1. Enrichments were inoculated with 150 μL of biofilm extract from a corroded site and dominated by Acidithiobacillus spp. (>95% relative abundance).
FIGS. 5A-5E are graphs showing cell densities (cells/mL) observed in sewer sourced enrichment cultures including copper, cobalt and silver, alone and in combinations. FIG. 5A: Cu^2+, FIG. 5B: Ag^+, FIG. 5C: Cu^2+/Ag^+ in combination at a ratio 2:1, FIG. 5D: Co^2+, and FIG. 5E: Cu^2+/Co^2+ in combination at a ratio 1:1. Light grey bars indicate enrichment cultures where pH dropped below 2. Dark grey bars indicate batches where pH approached neutrality. (n=3).
The pH was monitored and used as an indicator for significant acidophilic SOB activity (FIGS. 4A-4E). Thiobacillus media, without any metal addition, was used as control for comparative analysis. […] Above 40 mg Cu/L, no pH depression was observed; in contrast, pH increased and plateaued at values ranging between 6.5 and 6.7. […] Where only cobalt and silver were used, all challenges indicated some evidence of acidophilic activity.
Combinations of metals were also studied, including Cu/Ag and Cu/Co at mass ratios of 2:1 and 1:1, respectively. […] Thresholds for pH were also observed above 10 mg Cu/L and 10 mg Co/L, where copper and cobalt were combined. This challenge was monitored over 30 days, indicating significant acidophilic activity after […] of incubation.
All metal species used for the challenges were based on nitrate salts. Therefore, inhibition in the presence of counter ions, was also monitored. Challenges with increasing NO3 concentrations (up to 200 mg NO3/L) where prepared with NaNO3. All challenges indicated acidophilic activity and no lag effect was ever observed.
Aliquots for cell quantification and genetic analyses were extracted from each experiment when pH reached 2. If no pH drop was observed, aliquots were extracted after 30 days of incubation. FIGS. 5A-5E illustrate the observed cell densities for all tests.
The inhibitory effects and minimum inhibitory concentration of Cu and Co were further assessed on mixed acidophilic cultures in a liquid format. Silver (Ag) was also included based on its literature history as broad-spectrum inhibitory metal. As for the solid inhibition assays, the results presented in this study support the hypothesis that different metal may ions have markedly different inhibitory potential against Acidithiobacillus spp. extracted from sewer crowns. […] In thiosulfate-based media, stationary phase for Acidithiobacillus cultures was reached 8 days after inoculation. The relative duration of experiments highlighted metal-induced lag phases from stable inhibitory concentrations. MICs clearly emerged for Cu alone (50 mg Cu/L), and in mixtures of Cu/Ag (50 mg/L and 25 mg/L) and Cu/Co (15 mg/L and 15 mg/L). […] No inhibitory synergism was observed when mixing Cu and Ag at a 2:1 ratio, when compared to any individual metal alone. However, synergistic inhibition was observed when Cu and Co were present at a 1:1 ratio. […] The literature is tenuous on this topic.

[2] = system: sulfur oxidizing bacteria isolated from a corroding sewer (Acidithiobacillus spp.); assay: modified Kirby-Bauer diffusion susceptibility test, metal-laden PAC on thiosulfate agar (solid media); type: cell-based, Acidithiobacillus thiooxidans; details: average
Excerpt: Bacterial cell abundance on the different areas of the plate surfaces were quantified using the epifluorescence microscopy methods known in the art. Areas selected for representative analysis were located in the center of each inhibition zone and the dispersed colonies area, and 10 mm into the bacterial monolayer.
Acidithiobacillus spp. response to metal mixtures is limited, however, the synergy of binary and ternary metal solutions have been described. […] The classic Kirby-Bauer antibiotic sensitivity test was adopted to assess diffusion inhibition of Acidithiobacillus thiooxidans growing on agar surfaces, in a longitudinal format.

[3] = system: Acidithiobacillus spp.; assay: 16S rRNA gene analysis of metal-exposed enrichment cultures; type: cell-based; details: below 40 mg Cu/L
Excerpt: Cu and Cu/Ag mixtures were chosen to investigate the microbial communities under conditions where a pH threshold was observed. 16S rRNA gene analysis of 17 samples generated over 4 million sequences, classified in 611 operational taxonomic units (OTUs). After rarefaction analysis, the median Good's coverage was >99.9%, indicating enough sequencing data to confidently describe the diversity within these samples. Abundant OTUs consistently included 5 bacteria genera (FIGS. 6A-6B). Samples with metal concentration below the acidophilic inhibition threshold (40 mg Cu/L) indicated bacterial communities were dominated by Acidithiobacillus spp. […] When copper and silver were both present, Acidithiobacillus represented the dominant genus below the concentrations of 40 mg Cu/L and 20 mg Ag/L. The same genus represented less than 1% in batches above these concentrations. Following the same pattern as in the presence of Cu alone, the enrichments were also dominated by Burkholderia and Ralstonia spp. with significant presence of Sphingomonas spp., Leifsonia spp., Methylobacterium spp., and Microbacteriaceae spp. (when Cu ≥40 mg/L).

## O=[N+]([O-])[O-].[Na+] [NaNO3, reference compound]
[1]; counter ion challenge
  highest NO3 concentration still showing acidophilic activity, no lag: ≥ 200 mg NO3/L

## [Zn] [Zn, zinc]
[2]
  metal normalized inhibition length (Zn): 0.14 cm·(mg Zn/L)^−1

## [Cd] [Cd, cadmium]
[2]
  metal normalized inhibition length (Cd): 0.74 cm·(mg Cd/L)^−1

## [Ni] [Ni, nickel]
[2]
  metal normalized inhibition length (Ni): 0.28 cm·(mg Ni/L)^−1

## [Co+2] [Co, cobalt]
[2]; Co alone or co-loaded with Cu on PAC
  metal normalized inhibition length (Co): 1.23 cm·(mg Co/L)^−1
[1]; 30 days, Co alone or in Cu/Co
  MIC, Co: > 50 µg/mL
[1]; Co alone (highest tested) or Cu/Co 1:1
  threshold Co concentration for pH depression: ≥ 50 mg Co/L
[1]
  cell density where pH dropped: 3.81×10^8 cells/mL

## [Ag] [Ag, silver]
[1]; 30 days, Ag alone (highest tested) or in Cu/Ag
  MIC, Ag: > 75 µg/mL
[1]; Ag alone (highest tested) or Cu/Ag 2:1
  threshold Ag concentration for pH depression: ≥ 75 mg Ag/L
[1]
  cell density where pH dropped: 1.73×10^8 cells/mL

## [Cu+2] [Cu, copper]
[2]; agar, 10 days, pH below 3, Cu alone or co-loaded with Co on PAC
  metal normalized inhibition length (Cu): 2.36 cm·(mg Cu/L)^−1
[1]; 30 days, Cu alone or in Cu/Ag 2:1, Cu/Co 1:1
  MIC, Cu: 50 µg/mL
[1]; aliquots after 30 days
  cell density where pH did not drop: 1.11×10^9 cells/mL
[1]
  cell density where pH dropped: 1.06×10^8 cells/mL
[1]; no significant pH drop after 30 days, Cu alone
  minimum inhibitory concentration (MIC) for acidophilic growth: 50 mg Cu/L
[1]; up to 40 mg Cu/L
  endpoint pH of challenges at or below threshold: < 2 pH
[3]
  Acidithiobacillus relative abundance below threshold: > 99%
